Legend:
Cotton (CT) [1] = experiment: Post-emergence herbicide test; format: in vivo, Gossypium hirsutum var. DPL smooth leaf; conditions: Gossypium hirsutum, post-emergence, 336 h; 8 lb/acre; two weeks after treatment
In short: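 This greenhouse post-emergence test measured how well spray treatments controlled cotton. Seedlings of Gossypium hirsutum var. DPL smooth leaf, with expanded cotyledons and a first true leaf 1' in length, were sprayed with 50 ml formulations in a belt-fed spray hood. They were then returned to the greenhouse and watered only by sub-irrigation. Injury was scored visually as % control after two weeks.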

[2] = test system: variety of crops and weed species; experiment: Pre- and post-emergence herbicide tests, overall assessment of Tables III-VI; format: in vivo; conditions: data of Tables III-VI
Method: All crop and weed species were planted individually in 3' plastic pots containing potting soil. Four seeds each of corn, cotton, and snapbeans were seeded to a depth equal to the diameter of the seed. All other species were surface seeded and sprinkled with screened soil in an amount sufficient to cover the seed. Immediately after planting, all pots were watered by sub-irrigation in greenhouse trays. Pots for the pre-emergence phase were seeded one day before treatment.
Compounds were tested at rates of application equivalent to 8 lbs. of actual compound per acre in a spray volume of 38 gallons per acre. Spray hood constants required to deliver the above volume are as follows:
Two weeks after treatment, pre- and post-emergence injury or control was visually rated, and the results were as shown in the following tables. Pre-emergence data are provided in TABLE III and post-emergence data are provided in TABLE IV, for compounds having the formula illustrated in TABLE I. Correspondingly, pre-emergence and post-emergence data, respectively, are set forth in TABLES V AND VI, for compounds having the formula illustrated in TABLE II.

Crabgrass (CG) [3] = experiment: Pre-emergence herbicide test; format: in vivo, Digitaria sanquinalis; conditions: Digitaria sanguinalis, pre-emergence, 336 h; 8 lb/acre; two weeks after treatment
In short: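 Crabgrass (Digitaria sanquinalis) was surface seeded in 3' plastic pots of potting soil, covered with screened soil, and watered by sub-irrigation in greenhouse trays. Pots were seeded one day before spraying in a hood with a moving belt and fixed nozzle. Plants stayed in the greenhouse on sub-irrigation, and pre-emergence control was rated visually two weeks after treatment.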

Crabgrass (CG) [4] = experiment: Post-emergence herbicide test; format: in vivo, Digitaria sanquinalis; conditions: Digitaria sanguinalis, post-emergence, 336 h; 8 lb/acre; two weeks after treatment
In short: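 Crabgrass (Digitaria sanquinalis) was surface seeded individually in 3' plastic pots of potting soil, covered with screened soil, and watered by sub-irrigation in greenhouse trays. Planting was staggered so seedlings reached the target stage together. Post-emergence sprays were applied in a hood with a removable belt and fixed nozzle, and control was visually rated two weeks after treatment.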

Johnson grass (JG) [5] = experiment: Pre-emergence herbicide test; format: in vivo, Sorgum helepense; conditions: Sorghum halepense, 336 h, 8 lb/acre, two weeks after treatment
In short: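 Visual injury or control rating two weeks post-treatment, after pre-emergence spray of 8 or 4 lbs active per acre (38 gal/acre) onto pots sown the previous day. Greenhouse watering by sub-irrigation only.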

Corn (CN) [6] = experiment: Pre-emergence herbicide test; format: in vivo; conditions: Zea mays, 336 h, 8 lb/acre, two weeks after treatment
In short: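 Visual injury/control ratings were made 2 weeks post-spray on corn pots seeded (4 seeds, seed-diameter depth) the day before treatment. Application was a belt-hood spray of 38 gal/acre delivering 8 lbs active per acre, with a 4 lbs/acre rate also formulated. Watering was by sub-irrigation throughout.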

Bean (BN) [7] = experiment: Post-emergence herbicide test; format: in vivo, Phaseolus vulgaris var. Black Valentine; conditions: Phaseolus vulgaris, post-emergence, 336 h; 8 lb/acre; two weeks after treatment
In short: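 Bean seedlings (Phaseolus vulgaris var. Black Valentine) were grown in potting soil in 3' pots until the primary leaves expanded. They were then sprayed under a hood with a removable belt and fixed nozzle, using 50 ml formulations. Afterward they were returned to the greenhouse and watered only by sub-irrigation. Percent control was judged visually two weeks after treatment.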

Amaranth pigweed (PW) [8] = experiment: Pre-emergence herbicide test; format: in vivo, Amaranthus retroflexus; conditions: 336 h, 8 lb/acre, two weeks after treatment
In short: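 Visual injury or control ratings were made at two weeks on pre-emergence pots, sub-irrigated in the greenhouse. Seeds were sown a day before a hood spray delivering 8 lbs/acre (or 4 lbs/acre) of compound in 38 gallons per acre.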

Cotton (CT) [9] = experiment: Pre-emergence herbicide test; format: in vivo, Gossypium hirsutum var. DPL smooth leaf; conditions: Gossypium hirsutum, 336 h, 8 lb/acre, two weeks after treatment
In short: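 Visual injury/control ratings were taken at two weeks post-spray. Pots seeded a day earlier received compound pre-emergence at 8 lbs/acre, or 4 lbs/acre, in a 38 gallon/acre spray volume, and were then held in the greenhouse, watered only from below.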

Corn (CN) [10] = experiment: Post-emergence herbicide test; format: in vivo; conditions: Zea mays, 336 h, 8 lb/acre, two weeks after treatment
In short: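 Greenhouse seedlings grown in potting soil and sprayed post-emergence at 8 lbs compound/acre (formulations also made for 4 lbs/acre) in 38 gallons/acre spray volume. Watering by sub-irrigation only. Injury or control rated visually two weeks after treatment.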

Johnson grass (JG) [11] = experiment: Post-emergence herbicide test; format: in vivo, Sorgum helepense; conditions: Sorghum halepense, 336 h, 8 lb/acre, two weeks after treatment
In short: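 Visual injury or control scores taken 2 weeks after a post-emergence spray of pot-grown plants. Application was 8 lbs/acre (or 4 lbs/acre) in 38 gal/acre. Plants were held in the greenhouse with sub-irrigation only.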

Amaranth pigweed (PW) [12] = experiment: Post-emergence herbicide test; format: in vivo, Amaranthus retroflexus; conditions: 336 h, 8 lb/acre, two weeks after treatment
In short: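 Visual injury or control ratings were made two weeks after spraying, with greenhouse watering by sub-irrigation only. Treatment was post-emergence, when pigweed seedlings had 1 or 2 true leaves, at 8 lbs active compound per acre (4 lbs/acre formulations also made) in a 38 gallons-per-acre spray volume.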

Turnip (TP) [13] = experiment: Post-emergence herbicide test; format: in vivo, Brassica sp.; conditions: Brassica rapa, post-emergence, 336 h; 8 lb/acre; two weeks after treatment
In short: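 A greenhouse post-emergence herbicide test on turnip. Seeds were sown on the surface of potting soil in 3' plastic pots, lightly covered with screened soil and watered from below. Planting was timed so seedlings had 1 or 2 true leaves above the cotyledons at spraying, done in a hood with a fixed nozzle. Control or injury was scored by eye after two weeks.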

Bean (BN) [14] = experiment: Pre-emergence herbicide test; format: in vivo, Phaseolus vulgaris var. Black Valentine; conditions: Phaseolus vulgaris, 336 h, 8 lb/acre, two weeks after treatment
In short: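 Visual injury/control ratings were taken two weeks post-spray on sub-irrigated Phaseolus vulgaris var. Black Valentine. Pots were sown a day before treatment. Pre-emergence spray delivered 8 lbs actual compound per acre (or 4 lbs/acre) at 38 gallons per acre.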

Turnip (TP) [15] = experiment: Pre-emergence herbicide test; format: in vivo, Brassica sp.; conditions: Brassica rapa, pre-emergence, 336 h; 8 lb/acre; two weeks after treatment
In short: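 In this pre-emergence greenhouse test, turnip was seeded on the surface of potting soil in 3' plastic pots, lightly covered with screened soil, and watered from below. One day later the pots were sprayed in a belt-fed spray hood. Watering continued only by sub-irrigation, and percent control was visually scored two weeks after treatment.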

Barnyard grass (BG) = experiment: Post-emergence herbicide test; format: in vivo; conditions: Echinochloa crus-galli, 336 h, 8 lb/acre, two weeks after treatment
In short: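 Greenhouse pot-grown barnyard grass seedlings sprayed post-emergence at 8 lbs active compound per acre (some at 4 lbs/acre) in 38 gallons per acre, then sub-irrigated. Injury or control rated visually two weeks after treatment.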

## CCc1nnc(NC(=O)N(C)C)s1 [Example 20]
Cotton (CT) [1]
  pest or weed control at 8966.8 g/ha: 80%
[2]
  herbicidal effectiveness / selectivity, in words: more selective when applied to a certain crop or weed species
Crabgrass (CG) [3]
  pest or weed control at 8966.8 g/ha: 90%
Crabgrass (CG) [4]
  pest or weed control at 8966.8 g/ha: 20%
Johnson grass (JG) [5]
  pest or weed control at 8966.8 g/ha: 70%
Corn (CN) [6]
  pest or weed control at 8966.8 g/ha: 30%
Bean (BN) [7]
  pest or weed control at 8966.8 g/ha: 50%
Amaranth pigweed (PW) [8]
  pest or weed control at 8966.8 g/ha: 90%
Cotton (CT) [9]
  pest or weed control at 8966.8 g/ha: 30%
Corn (CN) [10]
  pest or weed control at 8966.8 g/ha: 30%
Johnson grass (JG) [11]
  pest or weed control at 8966.8 g/ha: 20%
Amaranth pigweed (PW) [12]
  pest or weed control at 8966.8 g/ha: 100%
Turnip (TP) [13]
  pest or weed control at 8966.8 g/ha: 90%
Bean (BN) [14]
  pest or weed control at 8966.8 g/ha: 10%
Turnip (TP) [15]
  pest or weed control at 8966.8 g/ha: 100%
Barnyard grass (BG)
  pest or weed control at 8966.8 g/ha: 20%

— patent US4175081A, “5-Substituted thiadiazole ureas” (priority 1977, dated 1979)
